In ChEMBL document CHEMBL3301555, “MMV Malaria Box screening in pLDH viability assay against Plasmodium falciparum gametocytes”:

Each compound was assayed on Plasmodium falciparum (assay: MMV: Measure of pLDH activity as indication of parasite viability. Gametocytogenesis of 3D7 Plasmodium falciparum strain was induced in vitro and asexual parasites were depleted with N-acetylglucosamine. Gametocytes were treated with dihydroartemisinin, epoxomicin, methylene blue, primaquine, puromycin or chloroquine in 96-well plates and the pLDH activity was evaluated using a modified Makler protocol. Mosquito infectivity was measured by the standard membrane feeding assay.).
Format: functional
Set-up: concentration or dose not given beside the values

Point of comparison: Cc1ccc2c(C)nc(Nc3nc(C)cc(-c4ccccc4)n3)nc2c1, “Growth Inhibition” value -3.9148%. Against it:
- O=C(NCc1ccco1)C1CCN(S(=O)(=O)c2ccc(Cl)cc2)CC1 — higher, 3.8942%
- CCOC(=O)c1c(C)n(-c2ccc(Cl)cc2)c2ccc(OC(=O)C=Cc3ccccc3)cc12 — higher, -3.2706%
- CC(C)(C)c1ccc2c(c1)CN(Cc1ccc(Cl)cc1)CO2 — higher, 36.3995%
- Cc1sc(NC(=O)c2ccco2)c(C(c2cccnc2)N2CCC(Cc3ccccc3)CC2)c1C (configuration not stated) — higher, 4.6056%
- CC1(c2ccccc2)Nc2ccccc2-c2nc3ccccc3n21 (configuration not stated) — higher, 8.0798%
- O=C(O)C1Cc2c([nH]c3ccccc23)C(c2ccc(Cl)cc2Cl)N1 (configuration not stated) — higher, 8.0448%
- O=c1nc(C=Cc2ccc(Br)cc2)oc2ccccc12 — higher, 11.7922%
- CCCCCCc1cc2cc(-c3csc(C=Cc4ccccc4)n3)c(=O)oc2cc1O — higher, 20.6338%
- O=C(Nc1cccc(-c2nc3ccccc3[nH]2)c1)c1cccc(NC(=O)c2ccco2)c1 — higher, 6.1984%
- CCOc1cc(Cl)c(C(C)NC(=O)c2ccccc2)cc1OCC (configuration not stated) — higher, 3.3956%
- C=CC12CCN(CC1)C(C(O)c1ccnc3ccc(OC)cc13)C2.Cl (configuration not stated) — higher, 15.913%
- COc1ccc2c(c1)C1(Nc3ccccc3-c3nc4ccccc4n31)C(=O)N2 (configuration not stated) — higher, 23.3334%
- COc1ccc2c(=O)cc(C(Cl)(Cl)Cl)oc2c1 — higher, 12.9182%
- COc1ccc2nc(C)cc(Nc3ccccc3O)c2c1 — higher, 10.6942%
- CCOC(=O)c1cnc2c(C)cc(C)cc2c1Nc1ccc(OC)c(OC)c1 — lower, -11.2088%
- CC(Oc1ccc(NC(=O)c2cccs2)cc1)C(=O)c1ccc(Cl)cc1 (configuration not stated) — higher, 16.818%
- COc1ccc(-c2cc(=O)oc3c4c(ccc23)OCN(Cc2ccc(F)cc2)C4)cc1 — higher, 25.9468%
- CCOc1ccccc1CNC(=O)C1c2ccccc2C(=O)N(CC(C)C)C1c1cccs1 (configuration not stated) — higher, 7.24%
- c1ccc(CNc2nc(Nc3ccccc3)nc3ccccc23)cc1 — higher, 12.3006%
- O=C(CCc1ccccc1)c1ccccc1OCC(O)CN1CCCCC1 (configuration not stated) — higher, 24.7266%
- COc1cc(SC)ccc1C(=O)N1CCCC(C)C1 (configuration not stated) — higher, 14.445%
- Clc1ccc2c(N3CCCC3)ccnc2c1 — higher, 18.4524%
- CC(=O)Nc1nnc(SCc2c(C)cc(C(C)(C)C)cc2C)s1 — lower, -6.288%
- COc1cccc(Nc2nc(N)c3ccccc3n2)c1.Cl — higher, 17.598%
- COCCN(C(=O)Cc1cccs1)C(C(=O)NCc1ccc(OC)cc1)c1ccc(C(C)C)cc1 (configuration not stated) — higher, 12.1412%
- Cc1ccc(C(=O)c2oc3ccc4c(C)cc(=O)oc4c3c2C)cc1 — higher, 1.1304%
- COc1ccc2c(c1)OC(O)(C(F)(F)C(F)(F)F)CC2=O (configuration not stated) — higher, 11.5806%
- CN1CCN(c2ncnc3c2[nH]c2ccc(Cl)cc23)CC1 — higher, 7.405%
- O=C(Nc1ccc(N2CCN(Cc3ccccc3)CC2)cc1)c1cccs1.O=C(O)C(F)(F)F — lower, -8.6144%
- Cc1ccc(Nc2nc(N)c3ccccc3n2)cc1Cl — higher, 23.2734%
- N#Cc1nc(Cc2cccc3ccccc23)oc1N1CCN(C(c2ccccc2)c2ccccc2)CC1 — lower, -13.1388%
- FC(F)(F)c1ccc(Nc2nnnc3ccccc23)cc1 — higher, 21.2738%
- COc1ccc(OC)c(C2C3=C(CC(C)(C)CC3=O)N(c3ccc(Cl)c(Cl)c3)C3=C2C(=O)CC(C)(C)C3)c1 — higher, 21.894%
- CC(C)(C)c1ccc(C(=O)Nc2c3c(nn2-c2cccc(Cl)c2)CSC3)cc1 — higher, 9.0986%
- CCn1c(SCC(=O)Nc2cc(C(F)(F)F)ccc2Cl)nc2ccccc2c1=O — higher, -1.2952%
- Cc1cc(C=C2SC(=Nc3ccccc3)N(C3CCCC3)C2=O)c(C)n1-c1ccc(Cl)cc1 — higher, -0.992%
- Cc1[nH]c(-c2ccc(F)cc2)cc1C(=O)NC1CCN(Cc2ccccc2)CC1 — higher, 9.4322%
- Cc1ccccc1OCCSc1nc2ccc(NC(=O)c3ccccc3)cc2s1 — higher, -3.751%
- COc1cc2c3cc1Oc1c(OC)c(OC)cc4c1C(Cc1ccc(O)c(c1)Oc1ccc(cc1)CC3N(C)CC2)N(C)CC4.Cl (configuration not stated) — higher, 37.697%
- O=C(O)C(=O)O.Oc1ccccc1CN1CCN(C(c2ccccc2)c2ccccc2)CC1 — higher, 27.3522%
- COc1cc(OC)cc(N2C(=O)N(Cc3ccc(C(C)(C)C)cc3)c3ccccc3S2(=O)=O)c1 — higher, 5.995%
- CCOc1ccc(Nc2ccnc3cc(Cl)ccc23)cc1 — higher, 2.6298%
- CCOC(=O)c1cnc2ccc(OC)cc2c1NCc1ccccc1 — higher, 11.9674%
- CCC(O)c1ccc(Br)cc1NC(=O)c1cccc(Cl)c1 (configuration not stated) — higher, 24.26%
- CC(C)(C)C(=O)Nc1ccc(C(=O)Nc2cccc(-c3nc4ccccc4[nH]3)c2)cc1 — higher, 13.3516%
- CCOc1ccccc1CN1CCc2nc3cc(C(C)(C)C)nn3c(O)c2C1 — higher, 8.4768%
- CC(=O)c1sc(NC(=O)Nc2ccc(C)cc2C)nc1C — higher, 12.9136%
- c1ccc2cc3c(Nc4ccc(N5CCOCC5)cc4)ccnc3cc2c1 — higher, 12.7974%
- CCCCCCc1cc(O)c2c3c(c(=O)oc2c1)CCC(C)C3 (configuration not stated) — higher, 26.585%
- O=C1c2ccccc2C2=Nc3ccccc3SC(c3cccc(F)c3)C12 (configuration not stated) — higher, 29.827%
- O=C(CSc1ccc2nnc(-c3cccc(F)c3)n2n1)Nc1ccc2c(c1)OCO2 — higher, 8.1908%
- CCOC(=O)c1c[nH]c2c(CC)cccc2c1=O — higher, 3.164%
- COc1cc(-c2nc(-c3ccccc3)c(-c3ccccc3)[nH]2)cc(OC)c1O — higher, 13.9122%
- O=C(Nc1cccc(C(F)(F)F)c1)c1cc(Cl)ccc1O — higher, 14.365%
- CCOC(=O)c1c(NC(=O)c2ccccc2)sc2c(O)c(CN(CC)CC)ccc12 — higher, 35.4934%
- CCOc1cc(Cl)c(C(C)NC(=O)c2cccc(OC)c2)cc1OCC (configuration not stated) — higher, 18.9364%
- CC1CC(C)CN(C(=O)c2ccc(Cl)cc2Cl)C1 (configuration not stated) — higher, -2.8594%
- Oc1ccc2ccccc2c1CNc1nc2ccccc2[nH]1 — higher, 8.4186%
- COc1cc2c(cc1OC)C1=NNC(=O)C1=NC(C)(C)C2 — higher, 35.8316%
- CCOC(=O)C1=C(C)N=c2sc(=Cc3ccccc3O)c(=O)n2C1c1ccc(OC)c2ccccc12 (configuration not stated) — higher, 6.5248%
- Cl.Oc1ccccc1CNCC12CC3CC(CC(C3)C1)C2 — higher, 28.0055%
- COc1ccc(/C=C2/SC(=Nc3ccccc3)NC2=O)cc1 — higher, 42.24%
- CC(C)(C)c1ccc(O)c(CNC2CCCCC2)c1 — higher, 30.335%
- COc1ccc(CNC(=O)c2cc3c(=O)n4ccccc4nc3n(CCc3ccccc3)c2=N)cc1 — higher, 29.2402%
- OC1=C2C(=Nc3ccccc3SC2c2ccc(Br)cc2)c2ccccc21 (configuration not stated) — higher, 30.3526%
- CCN(CC)c1ccc(NC(=O)c2cccs2)cc1 — higher, 3.9542%
- CCOc1cc(CNC(C)C(O)c2ccccc2)cc(Cl)c1OCC (configuration not stated) — higher, 17.857%
- COc1ccc(C=C2SC(=N)N(c3ccccc3OC)C2=O)cc1 — higher, 26.57%
- CCCCN(CCCC)S(=O)(=O)c1ccc(NC(=O)c2ccco2)cc1 — higher, 9.666%
- COc1cccc(C2(C)Nc3ccccc3-c3nc4ccccc4n32)c1 (configuration not stated) — higher, 2.1776%
- Cc1ccc(-c2nc3ccccc3o2)cc1NCc1cc(Cc2ccccc2)ccc1O — higher, 21.1902%
